Assay results as given in ChEMBL document CHEMBL5154805, “From tryptophan-based amides to tertiary amines: Optimization of a butyrylcholinesterase inhibitor series” (Eur J Med Chem, 2022).

Columns and labels:
Acetylcholinesterase [1] = target: T1, Acetylcholinesterase (Homo sapiens, UniProt P22303); test: Inhibition of recombinant human AChE assessed as residual activity at 3 uM using acetylthiocholine iodide as substrate preincubated for 1 to 30 mins followed by substrate addition by Ellman's method relative to control; settings: time 1-30 min
Cholinesterase [2] = target: T2, Cholinesterase (Homo sapiens, UniProt P06276)
Description: Inhibition of recombinant human BChE using butyrylthiocholine iodide as substrate preincubated for 1 to 30 mins followed by substrate addition by Ellman's method

Acetylcholinesterase [3] = target: T1, Acetylcholinesterase; test: Inhibition of recombinant human AChE using acetylthiocholine iodide as substrate preincubated for 1 to 30 mins followed by substrate addition by Ellman's method
Cholinesterase [4] = target: T2, Cholinesterase; remark: listed apart in the source
Description: Binding affinity to human recombinant BChE assessed as decarbamoylation rate by measuring half life

Acetylcholinesterase [5] = target: T1, Acetylcholinesterase; test: Inhibition of recombinant human AChE assessed as residual activity at 100 uM using acetylthiocholine iodide as substrate preincubated for 1 to 30 mins followed by substrate addition by Ellman's method relative to control; settings: time 1-30 min
Acetylcholinesterase [6] = target: T3, Acetylcholinesterase (Mus musculus, UniProt P21836); test: Inhibition of mouse recombinant AChE assessed as reduction in cholinesterase activity using acetylthiocholine iodide as substrate preincubated for 1 to 30 mins followed by substrate addition by Ellman's method
T3 sequence (P21836 whole entry): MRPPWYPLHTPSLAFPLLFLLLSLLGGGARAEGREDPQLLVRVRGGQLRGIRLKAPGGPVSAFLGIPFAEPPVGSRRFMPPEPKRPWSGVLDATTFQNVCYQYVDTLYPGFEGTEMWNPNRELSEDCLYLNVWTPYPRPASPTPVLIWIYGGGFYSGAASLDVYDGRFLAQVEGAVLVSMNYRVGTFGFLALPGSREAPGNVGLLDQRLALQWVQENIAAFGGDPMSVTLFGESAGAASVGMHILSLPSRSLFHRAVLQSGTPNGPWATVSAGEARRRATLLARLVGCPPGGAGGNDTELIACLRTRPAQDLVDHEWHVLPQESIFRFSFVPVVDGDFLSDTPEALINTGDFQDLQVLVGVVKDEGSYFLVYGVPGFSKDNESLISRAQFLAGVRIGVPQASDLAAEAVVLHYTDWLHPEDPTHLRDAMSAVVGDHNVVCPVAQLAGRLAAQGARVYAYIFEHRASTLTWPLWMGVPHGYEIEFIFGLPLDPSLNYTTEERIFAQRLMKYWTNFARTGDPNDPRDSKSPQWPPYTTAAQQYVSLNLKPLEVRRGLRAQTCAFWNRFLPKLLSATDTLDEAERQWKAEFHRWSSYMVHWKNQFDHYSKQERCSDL

[7] = target: Cholinesterases; ACHE & BCHE (Homo sapiens) (UniProt P06276+P22303); test: Selectivity ratio of IC50 for recombinant human AChE to IC50 for recombinant human BChE; format: protein assay
Chain of Cholinesterases; ACHE & BCHE (Homo sapiens) (P06276 whole entry, looked up): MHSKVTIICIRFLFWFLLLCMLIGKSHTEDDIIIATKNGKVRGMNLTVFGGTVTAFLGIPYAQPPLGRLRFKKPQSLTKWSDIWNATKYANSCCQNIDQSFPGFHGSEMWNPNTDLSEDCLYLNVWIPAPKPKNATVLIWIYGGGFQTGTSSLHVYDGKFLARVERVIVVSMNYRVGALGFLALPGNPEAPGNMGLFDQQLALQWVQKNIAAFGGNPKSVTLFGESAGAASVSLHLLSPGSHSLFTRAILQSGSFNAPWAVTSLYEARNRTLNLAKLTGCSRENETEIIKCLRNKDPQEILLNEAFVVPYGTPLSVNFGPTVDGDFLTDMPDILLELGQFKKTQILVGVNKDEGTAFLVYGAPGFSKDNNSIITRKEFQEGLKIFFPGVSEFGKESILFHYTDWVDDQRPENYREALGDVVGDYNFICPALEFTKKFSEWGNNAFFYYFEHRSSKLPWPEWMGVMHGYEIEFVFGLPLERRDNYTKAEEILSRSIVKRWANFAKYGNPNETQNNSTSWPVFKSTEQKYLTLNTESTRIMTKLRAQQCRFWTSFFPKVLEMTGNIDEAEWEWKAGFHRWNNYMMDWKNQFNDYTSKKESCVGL
Chain of Cholinesterases; ACHE & BCHE (Homo sapiens) (P22303 whole entry, looked up): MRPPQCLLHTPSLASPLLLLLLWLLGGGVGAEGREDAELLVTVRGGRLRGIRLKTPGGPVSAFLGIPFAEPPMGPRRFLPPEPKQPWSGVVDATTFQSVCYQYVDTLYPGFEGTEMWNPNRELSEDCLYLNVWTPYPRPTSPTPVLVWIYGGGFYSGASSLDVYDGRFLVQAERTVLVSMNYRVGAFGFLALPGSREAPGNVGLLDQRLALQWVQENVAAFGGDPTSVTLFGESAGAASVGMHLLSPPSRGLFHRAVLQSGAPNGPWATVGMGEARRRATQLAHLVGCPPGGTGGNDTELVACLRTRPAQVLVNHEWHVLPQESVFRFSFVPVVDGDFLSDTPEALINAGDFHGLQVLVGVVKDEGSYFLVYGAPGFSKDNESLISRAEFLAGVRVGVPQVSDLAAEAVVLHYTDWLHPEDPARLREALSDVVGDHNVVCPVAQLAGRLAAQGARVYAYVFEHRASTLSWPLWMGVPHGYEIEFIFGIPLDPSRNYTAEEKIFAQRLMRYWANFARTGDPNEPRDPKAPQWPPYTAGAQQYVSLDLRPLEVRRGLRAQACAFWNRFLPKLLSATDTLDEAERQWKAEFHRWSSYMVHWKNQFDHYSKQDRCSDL

T2 sequence (P06276 whole entry): as the sequence (P06276 whole entry, looked up) above
T1 sequence (P22303 whole entry): as the sequence (P22303 whole entry, looked up) above

| Compound | Activity (Acetylcholinesterase [1]) [%] | IC50 (Cholinesterase [2]) [nM] | also measured |
| --- | --- | --- | --- |
| CCCCN(CCOc1ccc2ccc(OC(=O)N(C)C)cc2c1)CCC1CCCCCC1 | > 50 | 11.7 | – |
| CCCCN(CCCc1c[nH]c2ccccc12)CCC1CCCCCC1 | > 50 | 2.4 | – |
| CCCCN(CCOc1cccc2c(OC(=O)N(C)C)cccc12)CCC1CCCCCC1 | > 50 | 5.8 | IC50 (Acetylcholinesterase [3]): 0.0479 µM |
| CCCCN(CCCc1c[nH]c2ccccc12)CCC1CCC(N(C)C)CC1 (stereo in doubt; 33a) [listing 1 of 2 here] | – | 205 | – |
| CCCCN(CCc1c[nH]c2cc(OC(=O)N(C)C)ccc12)CCC1CCCCCC1 | > 50 | – | T1/2 (Cholinesterase [4]): 14.8 h |
| CN(C)C1CCC(CCN(CCCc2c[nH]c3ccccc23)CCC2CCCCCC2)CC1 (stereo in doubt; 32b) [listing 1 of 2 here] | – | 4.1 | IC50 (Acetylcholinesterase [3]): 8.57 µM |
| CCCCN(CCC1CCCCCC1)CCC1CCc2ccccc21 (centres undefined) | > 50 | 6.5 | – |
| CN(CCC1CCCCCC1)Cc1c(-c2nnn[nH]2)[nH]c2ccccc12 | > 50 | 929 | – |
| CCCCN(CCC1CCCCCC1)Cc1cc2ccccc2cc1O | > 50 | 33.7 | IC50 (Acetylcholinesterase [3]): 18.6 µM |
| CCCCN(CCCc1cc2ccccc2[nH]1)CCC1CCCCCC1 | > 50 | 4.7 | Activity (Acetylcholinesterase [5]): 74% |
| c1ccc2c(c1)CCC2CCN(CCCc1c[nH]c2ccccc12)CCC1CCCCCC1 (centres undefined) | > 50 | 6.3 | – |
| CCCCN(CCC1CCCCCC1)Cc1c[nH]c2cc(C#N)ccc12 | > 50 | 83.7 | – |
| CCCCN(CCc1c[nH]c2c(O)cccc12)CCC1CCCCCC1 | > 50 | – | Activity (Acetylcholinesterase [5]): 69% |
| CCCCN(CCC1CCCCCC1)Cc1cc2ccccc2cc1OC(=O)N(C)C | > 50 | 2.2 | – |
| CCCCN(CCc1c[nH]c2cc(O)ccc12)CCC1CCCCCC1 | > 50 | – | IC50 (Acetylcholinesterase [3]): 70.6 µM |
| CN1CCN(CCC2CCCCCC2)C[C@@H]1Cc1c[nH]c2ccccc12 | > 50 | 10.5 | Activity (Acetylcholinesterase [5]): 39% |
| CCCCN(CCCc1ccc2ccccc2c1)CCC1CCCCCC1 | > 50 | 5.1 | Activity (Acetylcholinesterase [5]): 56% |
| c1ccc2c(CCNCCC3CCCCCC3)c[nH]c2c1 | > 50 | 31.5 | – |
| CN(C)C1CCC(CCN(CCCc2c[nH]c3ccccc23)CCC2CCCCCC2)CC1 (stereo in doubt; 32b) [listing 2 of 2 here] | > 50 | – | – |
| CCCCN(CCC1CCCCCC1)Cc1cc(O)c2ccccc2c1 | > 50 | 4.7 | – |
| CCCCN(CCCC1CCNc2ccccc21)CCC1CCCCCC1 (centres undefined) | > 50 | 54.8 | Activity (Acetylcholinesterase [5]): 65% |
| CN(CCC1CCN(Cc2ccccc2)CC1)Cc1c[nH]c2ccccc12 | > 50 | 1710 | IC50 (Acetylcholinesterase [3]): 33.9 µM |
| CCCCN(CCCc1cccc2ccccc12)CCC1CCCCCC1 | > 50 | 1.9 | – |
| CCCCN(CCCc1c[nH]c2ccccc12)CCC1CCC(N(C)C)CC1 (stereo in doubt; 33b) [listing 1 of 2 here] | > 50 | – | – |
| CCCCN1CCN(CCCC2CCCCCC2)C[C@@H]1Cc1c[nH]c2ccccc12 | > 50 | 5 | IC50 (Acetylcholinesterase [6]): 10.3 µM; Ratio IC50 [7]: > 1000 |
| CN(CCC1CCCCCC1)Cc1cccc2[nH]ccc12 | > 50 | 349 | – |
| CCCCN(CCCc1c[nH]c2ccc(F)cc12)CCC1CCCCCC1 | > 50 | 6 | – |

| Compound | Activity (Acetylcholinesterase [1]) [%] | IC50 (Cholinesterase [2]) [nM] | also measured |
| --- | --- | --- | --- |
| CCCCN(CCCc1c[nH]c2ccccc12)CCC1CCC(N(C)C)CC1 (stereo in doubt; 33b) [listing 2 of 2 here] | – | 214 | – |
| CCCCN(CCCc1c[nH]c2ccccc12)CCC1CCC(N(C)C)CC1 (stereo in doubt; 33a) [listing 2 of 2 here] | > 50 | – | – |
| CCCCN(CCc1c[nH]c2c(OC(=O)C(C)C)cccc12)CCC1CCCCCC1 | > 50 | – | IC50 (Acetylcholinesterase [3]): 1.37 µM; T1/2 (Cholinesterase [4]): 15.2 h |
| CCCC[N+](C)(CCCc1c[nH]c2ccccc12)CCC1CCCCCC1 (centres undefined) | > 50 | 2.3 | IC50 (Acetylcholinesterase [3]): 23.2 µM |
| CN(C)C1CCC(CCN(CCCc2c[nH]c3ccccc23)CCC2CCCCCC2)CC1 (stereo in doubt; 32a) [listing 1 of 2 here] | – | 1.9 | IC50 (Acetylcholinesterase [3]): 12.6 µM |
| CN(CCC1CCCCCC1)Cc1c[nH]c2ccccc12 | > 50 | 60.4 | IC50 (Acetylcholinesterase [3]): 25.2 µM |
| c1ccc2c(CCCN(CCC3CCCCCC3)CCC3CCCCC3)c[nH]c2c1 | > 50 | 4.9 | – |
| CCCCN(CCc1c(-c2ccccc2OC(=O)N(C)C)[nH]c2ccccc12)CCC1CCCCCC1 | > 50 | 5.4 | – |
| CCCCN1CN(CCC2CCCCCC2)C[C@@H]1Cc1c[nH]c2ccccc12 | > 50 | 8.7 | IC50 (Acetylcholinesterase [6]): 11 µM; Ratio IC50 [7]: > 1000 |
| CCCCN(CCC1CCCCCC1)Cc1c[nH]c2cc(Br)ccc12 | > 50 | 3.6 | – |
| CN(CCc1c[nH]c2ccccc12)CCC1CCCCCC1 | > 50 | – | – |
| CN(C)c1ccc(/C=C/CN(CCCc2c[nH]c3ccccc23)CCC2CCCCCC2)cc1 | > 50 | 4.6 | Activity (Acetylcholinesterase [5]): 54% |
| CCCCN(CCC1CCCCCC1)Cc1cn(OC(=O)N(C)C)c2ccccc12 | > 50 | 133 | IC50 (Acetylcholinesterase [3]): 0.152 µM |
| CCCCN(C)[C@@H](Cc1c[nH]c2ccccc12)CN(C)CCC1CCCCCC1 | > 50 | 3 | IC50 (Acetylcholinesterase [6]): 23.4 µM |
| CCCCN(CCc1c[nH]c2ccccc12)CCC1CCCCCC1 | > 50 | 5 | – |
| CCCC[N+]([O-])(CCc1c[nH]c2ccccc12)CCC1CCCCCC1 (centres undefined) | > 50 | 107 | Activity (Acetylcholinesterase [5]): 86% |
| CCCCN(CCC1CCCCCC1)Cc1c[nH]c2ccccc12 | > 50 | 13.3 | – |
| CCCCN(CCc1cn(C(=O)N(C)C)c2ccccc12)CCC1CCCCCC1 | > 50 | 0.87 | – |
| CN(C)C1CCC(CCN(CCCc2c[nH]c3ccccc23)CCC2CCCCCC2)CC1 (stereo in doubt; 32a) [listing 2 of 2 here] | > 50 | – | – |
| CCCCN(CCc1c[nH]c2ccc(O)cc12)CCC1CCCCCC1 | > 50 | 33.5 | Activity (Acetylcholinesterase [5]): 79% |
| CCCCN(CCC1CCCCCC1)Cc1ccc(OC(=O)N(C)C)c2ccccc12 | > 50 | 1.9 | IC50 (Acetylcholinesterase [3]): 0.101 µM |
| CCCCN[C@H](CNCCC1CCCCCC1)Cc1c[nH]c2ccccc12 | > 50 | 10.1 | IC50 (Acetylcholinesterase [6]): 12.4 µM |
| CCCCN(CCc1c[nH]c2ccc(OC(=O)N(C)C)cc12)CCC1CCCCCC1 | > 50 | 6.9 | – |
| CCCCN(CCC1CCCCCC1)Cc1cc(OC(=O)N(C)C)c2ccccc2c1 | > 50 | 2.4 | – |
| CCCCN(CCc1c(-c2ccccc2O)[nH]c2ccccc12)CCC1CCCCCC1 | > 50 | 16.8 | – |
| CCCCN(CCC1CCCCCC1)Cc1c[nH]c2ncccc12 | > 50 | 83 | Activity (Acetylcholinesterase [5]): 57% |
| CCCCN(CCCc1c[nH]c2ccccc12)CCC1CCN(Cc2ccccc2)CC1 | > 50 | 29.3 | IC50 (Acetylcholinesterase [3]): 7.84 µM |
